From US20240215582A1, “METHODS OF CONTROLLING PLANT PATHOGENS” (Valent BioSciences LLC, priority 2022, published 2024)
Where two headings read alike, the source gives them in different places.

Legend:
Ustilago maydis = experiment: In vitro growth on cervinomycin-amended growth media; type: cell-based
[1] = test system: Pseudoperonospora cubensis; experiment: Host plant efficacy assay (cucumber); type: in vivo
Pythium ultimum = experiment: In vitro growth on cervinomycin-amended growth media; type: cell-based
Zymoseptoria tritici = experiment: Host plant efficacy assay (wheat); type: in vivo
Phytophthora capsici = experiment: In vitro growth on cervinomycin-amended growth media; type: cell-based
Cladosporium carpophilum = experiment: as above; type: cell-based
Botrytis cinerea [2] = experiment: Foliar application, inoculated plants, disease severity; settings: for Disease severity B. cinerea: carrier control severity 63.3; for percent control B. cinerea: vs carrier control
Description: (§1) Biological efficacy assays utilizing cervinomycins were conducted on Pseudoperonospora cubensis and Botrytis cinerea. […] Once plants had dried they were inoculated with the pathogen, then were stored in a controlled climate chamber under high humidity for 4-6 days. At the end of the experiment disease severity was determined based on the percentage of plant tissue that was visually symptomatic.

[3] = test system: Pseudoperonospora cubensis; experiment: Field and greenhouse trials (cucumber, squash); type: in vivo; settings: P. cubensis
Botrytis cinerea [4] = experiment: In vitro growth on cervinomycin-amended growth media; type: cell-based
Fusarium graminearum = type: cell-based
Erysiphe diffusa = experiment: Host plant efficacy assay (soybean); type: in vivo
Podosphaera xanthii = experiment: Host plant efficacy assay (cucumber); type: in vivo
Sclerotinia sclerotiorum = experiment: Host plant efficacy assay (common bean); type: in vivo
[5] = test system: Pseudoperonospora cubensis; experiment: Foliar application, inoculated plants, disease severity; settings: for Disease severity P. cubensis Oct. 20, 2020: carrier control severity 70; for Disease severity P. cubensis Oct. 27, 2020: carrier control severity 79; for Disease severity P. cubensis Jul. 28, 2020: carrier control severity 67
Description: as §1

Puccinia triticina = experiment: Host plant efficacy assay (wheat); type: in vivo
Magnaporthe oryzae = type: in vivo
Pyrenophora teres = experiment: Host plant efficacy assay (barley); type: in vivo
Alternaria solani = experiment: Host plant efficacy assay (tomato); type: in vivo
Rhynchosporium secalis = experiment: In vitro growth on cervinomycin-amended growth media; type: cell-based
Cochliobolus miyabeanus = experiment: as above; type: cell-based
Plasmospora viticola = experiment: Efficacy on grape plants infected with Plasmospora viticola; settings: for % control Plasmospora viticola 1DAI: 1 day after infection; for % control Plasmospora viticola 1DAI / % control Plasmospora viticola 7DBI / % control Plasmospora viticola 1DB1: grape plants; for % control Plasmospora viticola 7DBI: 7 days before infection; for % control Plasmospora viticola 1DB1: 1 day before infection
Excerpt: Treatments occurred at either 1 day before infection (“1 DBI”), 7 days before infection (“7 DBI”) or 1 day after infection (“1 DAI”).

[6] = 500 ppm A2, untreated severity 34
[7] = 1000 ppm A2, untreated severity 34
[8] = 1500 ppm A2, untreated severity 34
[9] = 1 ppm foliar, vs carrier control
[10] = 3 ppm foliar, vs carrier control
[11] = 6 ppm foliar, vs carrier control
[12] = 12 ppm foliar, vs carrier control
[13] = 25 ppm foliar, vs carrier control
[14] = 30 ppm foliar, vs carrier control
[15] = 50 ppm foliar, vs carrier control

SMILES: COc1cc2oc3c(c(=O)c2cc1OC)C(=O)c1c(ccc2cc4c(c(O)c12)C(=O)N1CCOC1(C)C4)C3=O (stereo not drawn) [Cervinomycin A2, cervinomycin A2]
- % Control Ustilago maydis (Ustilago maydis; 0.004 ppm in growth media): 6%
- % Control Ustilago maydis (Ustilago maydis; 0.016 ppm in growth media): 12%
- % Control Ustilago maydis (Ustilago maydis; 0.063 ppm in growth media): 90%
- % Control Ustilago maydis (Ustilago maydis; 0.25 ppm in growth media): 100%
- % Control Ustilago maydis (Ustilago maydis; 1 ppm in growth media): 100%
- % control Pseudoperonospora cubensis Cucumber 1DBI ([1]; 11.3 ppm): 0 (0 (about 0%))
- % control Pseudoperonospora cubensis Cucumber 1DBI ([1]; 45 ppm): 0 (0 (about 0%))
- % control Pseudoperonospora cubensis Cucumber 1DBI ([1]; 180 ppm): 3 (3 (about 70%))
- % Control Pythium ultimum (Pythium ultimum; 0.004 ppm in growth media): 0%
- % Control Pythium ultimum (Pythium ultimum; 0.016 ppm in growth media): 13%
- % Control Pythium ultimum (Pythium ultimum; 0.063 ppm in growth media): 99%
- % Control Pythium ultimum (Pythium ultimum; 0.25 ppm in growth media): 96%
- % Control Pythium ultimum (Pythium ultimum; 1 ppm in growth media): 99%
- % control Zymoseptoria tritici Wheat 3DAI (Zymoseptoria tritici; 11.3 ppm): 0 (0 (about 0%))
- % control Zymoseptoria tritici Wheat 4DBI (Zymoseptoria tritici; 11.3 ppm): 0 (0 (about 0%))
- % control Zymoseptoria tritici Wheat 3DAI (Zymoseptoria tritici; 45 ppm): 0 (0 (about 0%))
- % control Zymoseptoria tritici Wheat 4DBI (Zymoseptoria tritici; 45 ppm): 0 (0 (about 0%))
- % control Zymoseptoria tritici Wheat 3DAI (Zymoseptoria tritici; 180 ppm): 0 (0 (about 0%))
- % control Zymoseptoria tritici Wheat 4DBI (Zymoseptoria tritici; 180 ppm): 0 (0 (about 0%))
- % Control Phytophthora capsici (Phytophthora capsici; 0.004 ppm in growth media): 4%
- % Control Phytophthora capsici (Phytophthora capsici; 0.016 ppm in growth media): 75%
- % Control Phytophthora capsici (Phytophthora capsici; 0.063 ppm in growth media): 90%
- % Control Phytophthora capsici (Phytophthora capsici; 0.25 ppm in growth media): 99%
- % Control Phytophthora capsici (Phytophthora capsici; 1 ppm in growth media): 100%
- % Control Cladosporium carpophilum (Cladosporium carpophilum; 0.004 ppm in growth media): 0%
- % Control Cladosporium carpophilum (Cladosporium carpophilum; 0.016 ppm in growth media): 0%
- % Control Cladosporium carpophilum (Cladosporium carpophilum; 0.063 ppm in growth media): 46%
- % Control Cladosporium carpophilum (Cladosporium carpophilum; 0.25 ppm in growth media): 99%
- % Control Cladosporium carpophilum (Cladosporium carpophilum; 1 ppm in growth media): 99%
- Disease severity B. cinerea (Botrytis cinerea [2]; 1 ppm foliar): 58%
- percent control B. cinerea (Botrytis cinerea [2]; 1 ppm foliar): (9%)
- Disease severity B. cinerea (Botrytis cinerea [2]; 3 ppm foliar): 45%
- percent control B. cinerea (Botrytis cinerea [2]; 3 ppm foliar): (29%)
- Disease severity B. cinerea (Botrytis cinerea [2]; 6 ppm foliar): 45%
- percent control B. cinerea (Botrytis cinerea [2]; 6 ppm foliar): (29%)
- Disease severity B. cinerea (Botrytis cinerea [2]; 12 ppm foliar): 30%
- percent control B. cinerea (Botrytis cinerea [2]; 12 ppm foliar): (53%)
- Disease severity B. cinerea (Botrytis cinerea [2]; 25 ppm foliar): 24%
- percent control B. cinerea (Botrytis cinerea [2]; 25 ppm foliar): (63%)
- Disease severity B. cinerea (Botrytis cinerea [2]; 50 ppm foliar): 9%
- percent control B. cinerea (Botrytis cinerea [2]; 50 ppm foliar): (87%)
- control of Botrytis cinerea (summary of Table 3) (Botrytis cinerea [2]; foliar application): significant control
- % Control [3, 6]: 27%
- Disease Severity [3, 6]: 25%
- % Control [3, 7]: 22%
- Disease Severity [3, 7]: 26%
- % Control [3, 8]: 44%
- Disease Severity [3, 8]: 19%
- % Control Botrytis cinerea (Botrytis cinerea [4]; 0.004 ppm in growth media): 3%
- % Control Botrytis cinerea (Botrytis cinerea [4]; 0.016 ppm in growth media): 2%
- % Control Botrytis cinerea (Botrytis cinerea [4]; 0.063 ppm in growth media): 70%
- % Control Botrytis cinerea (Botrytis cinerea [4]; 0.25 ppm in growth media): 100%
- % Control Botrytis cinerea (Botrytis cinerea [4]; 1 ppm in growth media): 100%
- % Control Fusarium graminearum (Fusarium graminearum; 0.004 ppm in growth media): 8%
- % Control Fusarium graminearum (Fusarium graminearum; 0.016 ppm in growth media): 4%
- % Control Fusarium graminearum (Fusarium graminearum; 0.063 ppm in growth media): 9%
- % Control Fusarium graminearum (Fusarium graminearum; 0.25 ppm in growth media): 0%
- % Control Fusarium graminearum (Fusarium graminearum; 1 ppm in growth media): 14%
- % control Erysiphe diffusa Soybean 2DAI (Erysiphe diffusa; 11.3 ppm): 0 (0 (about 0%))
- % control Erysiphe diffusa Soybean 2DAI (Erysiphe diffusa; 45 ppm): 0 (0 (about 0%))
- % control Erysiphe diffusa Soybean 2DAI (Erysiphe diffusa; 180 ppm): 0 (0 (about 0%))
- % control Podosphaera xanthii Cucumber 1DBI (Podosphaera xanthii; 11.3 ppm): 0 (0 (about 0%))
- % control Podosphaera xanthii Cucumber 1DBI (Podosphaera xanthii; 45 ppm): 0 (0 (about 0%))
- % control Podosphaera xanthii Cucumber 1DBI (Podosphaera xanthii; 180 ppm): 0 (0 (about 0%))
- % control Sclerotinia sclerotiorum Common bean 1DBI (Sclerotinia sclerotiorum; 11.3 ppm): 0 (0 (about 0%))
- % control Sclerotinia sclerotiorum Common bean 1DBI (Sclerotinia sclerotiorum; 45 ppm): 0 (0 (about 0%))
- % control Sclerotinia sclerotiorum Common bean 1DBI (Sclerotinia sclerotiorum; 180 ppm): 0 (0 (about 0%))
- Disease severity P. cubensis Oct. 20, 2020 ([5]; 1 ppm foliar): 52%
- Disease severity P. cubensis Oct. 27, 2020 ([5]; 1 ppm foliar): 7%
- percent control P. cubensis Oct. 20, 2020 [5, 9]: (26%)
- percent control P. cubensis Oct. 27, 2020 [5, 9]: 91%
- Disease severity P. cubensis Oct. 20, 2020 ([5]; 3 ppm foliar): 27%
- Disease severity P. cubensis Oct. 27, 2020 ([5]; 3 ppm foliar): 7%
- percent control P. cubensis Oct. 20, 2020 [5, 10]: (61%)
- percent control P. cubensis Oct. 27, 2020 [5, 10]: 91%
- Disease severity P. cubensis Oct. 20, 2020 ([5]; 6 ppm foliar): 16%
- Disease severity P. cubensis Oct. 27, 2020 ([5]; 6 ppm foliar): 2%
- percent control P. cubensis Oct. 20, 2020 [5, 11]: (77%)
- percent control P. cubensis Oct. 27, 2020 [5, 11]: 98%
- Disease severity P. cubensis Oct. 20, 2020 ([5]; 12 ppm foliar): 3%
- Disease severity P. cubensis Oct. 27, 2020 ([5]; 12 ppm foliar): 1%
- percent control P. cubensis Oct. 20, 2020 [5, 12]: (95%)
- percent control P. cubensis Oct. 27, 2020 [5, 12]: 99%
- Disease severity P. cubensis Jul. 28, 2020 ([5]; 15 ppm foliar): 28%
- percent control P. cubensis Jul. 28, 2020 ([5]; 15 ppm foliar, vs carrier control): 58%
- Disease severity P. cubensis Oct. 20, 2020 ([5]; 25 ppm foliar): 4%
- Disease severity P. cubensis Oct. 27, 2020 ([5]; 25 ppm foliar): 1%
- percent control P. cubensis Oct. 20, 2020 [5, 13]: (94%)
- percent control P. cubensis Oct. 27, 2020 [5, 13]: 99%
- Disease severity P. cubensis Jul. 28, 2020 ([5]; 30 ppm foliar): 10%
- Disease severity P. cubensis Jul. 14, 2020 ([5]; 30 ppm foliar, carrier control severity 98): 73%
- percent control P. cubensis Jul. 14, 2020 [5, 14]: 26%
- percent control P. cubensis Jul. 28, 2020 [5, 14]: 85%
- Disease severity P. cubensis Oct. 20, 2020 ([5]; 50 ppm foliar): 7%
- Disease severity P. cubensis Oct. 27, 2020 ([5]; 50 ppm foliar): 2%
- percent control P. cubensis Oct. 20, 2020 [5, 15]: (89%)
- percent control P. cubensis Oct. 27, 2020 [5, 15]: 98%
- Disease severity P. cubensis Jul. 28, 2020 ([5]; 60 ppm foliar): 18%
- percent control P. cubensis Jul. 28, 2020 ([5]; 60 ppm foliar, vs carrier control): 73%
- control of Pseudoperonospora cubensis (summary of Table 3) ([5]; foliar application): significant control
- % control Puccinia triticina Wheat 6DBI (Puccinia triticina; 11.3 ppm): 0 (0 (about 0%))
- % control Puccinia triticina Wheat 6DBI (Puccinia triticina; 45 ppm): 0 (0 (about 0%))
- % control Puccinia triticina Wheat 6DBI (Puccinia triticina; 180 ppm): 0 (0 (about 0%))
- % control Magnaporthe oryzae Rice 1DBI (Magnaporthe oryzae; 11.3 ppm): 0 (0 (about 0%))
- % control Magnaporthe oryzae Rice 1DBI (Magnaporthe oryzae; 45 ppm): 0 (0 (about 0%))
- % control Magnaporthe oryzae Rice 1DBI (Magnaporthe oryzae; 180 ppm): 0 (0 (about 0%))
- % control Pyrenophora teres Barley 1DBI (Pyrenophora teres; 11.3 ppm): 0 (0 (about 0%))
- % control Pyrenophora teres Barley 1DBI (Pyrenophora teres; 45 ppm): 0 (0 (about 0%))
- % control Pyrenophora teres Barley 1DBI (Pyrenophora teres; 180 ppm): 0 (0 (about 0%))
- % control Alternaria solani Tomato 1DBI (Alternaria solani; 11.3 ppm): 0 (0 (about 0%))
- % control Alternaria solani Tomato 1DBI (Alternaria solani; 45 ppm): 0 (0 (about 0%))
- % control Alternaria solani Tomato 1DBI (Alternaria solani; 180 ppm): 0 (0 (about 0%))
- % Control Rhynchosporium secalis (Rhynchosporium secalis; 0.004 ppm in growth media): 21%
- % Control Rhynchosporium secalis (Rhynchosporium secalis; 0.016 ppm in growth media): 71%
- % Control Rhynchosporium secalis (Rhynchosporium secalis; 0.063 ppm in growth media): 98%
- % Control Rhynchosporium secalis (Rhynchosporium secalis; 0.25 ppm in growth media): 99%
- % Control Rhynchosporium secalis (Rhynchosporium secalis; 1 ppm in growth media): 100%
- % Control Cochliobolus miyabeanus (Cochliobolus miyabeanus; 0.004 ppm in growth media): 0%
- % Control Cochliobolus miyabeanus (Cochliobolus miyabeanus; 0.016 ppm in growth media): 20%
- % Control Cochliobolus miyabeanus (Cochliobolus miyabeanus; 0.063 ppm in growth media): 49%
- % Control Cochliobolus miyabeanus (Cochliobolus miyabeanus; 0.25 ppm in growth media): 73%
- % Control Cochliobolus miyabeanus (Cochliobolus miyabeanus; 1 ppm in growth media): 87%
- control of P. viticiola (summary of Table 1) (Plasmospora viticola; 13-800 ppm): significant control
- % control Plasmospora viticola 1DAI (Plasmospora viticola; 13 ppm): 0%
- % control Plasmospora viticola 7DBI (Plasmospora viticola; 13 ppm): 61%
- % control Plasmospora viticola 1DB1 (Plasmospora viticola; 50 ppm): 100%
- % control Plasmospora viticola 7DBI (Plasmospora viticola; 50 ppm): 91%
- % control Plasmospora viticola 1DAI (Plasmospora viticola; 200 ppm): 0%
- % control Plasmospora viticola 1DB1 (Plasmospora viticola; 200 ppm): 100%
- % control Plasmospora viticola 1DAI (Plasmospora viticola; 800 ppm): 5%
- % control Plasmospora viticola 1DB1 (Plasmospora viticola; 800 ppm): 100%
- % control Plasmospora viticola 7DBI (Plasmospora viticola; 800 ppm): 100%
